Results published in patent US20070027067A1, “Transition-state Inhibitors of Pin1, alpha-Ketoamide-containing peptidomimetics, and synthesis thereof” (priority 2005, published 2007).

Assay: stability of the product in solution
Format: physicochemical
Conditions: CDCl3 solution, after 2 days; decomposition product appears to be a cyclic dimer (bis-lactone)
Excerpt: The compound 7 characterized by MS was obtained in 30% yield. […] The decomposition product appears to be a cyclic dimer (bis-lactone) of 7. [drawing 8] [drawing 9]

O=C(N[C@@H](CO)C(=O)C(=O)N1CCC[C@H]1C(=O)O)OCC1c2ccccc2-c2ccccc21 [Compound 7]
stability in solution (decomposition): totally decomposed
